These results are taken from ChEMBL document CHEMBL1800012, “Optimisation of a novel series of selective CNS penetrant CB(2) agonists” (Bioorg Med Chem Lett, 2011).

Usually EC50 stands for the concentration at which the effect is half-maximal. The term microsomal CLint denotes the capacity of the preparation to metabolise the compound, expressed as a volume cleared per time. A lower microsomal CLint goes with greater metabolic stability. As a reminder, the Emax is the size of the effect at its maximum, as opposed to the concentration needed. A word on the Vd: it is a proportionality between amount in the body and measured concentration, not a real space. Low readings indicate confinement near the circulation, high ones extensive tissue distribution. For orientation: clearance means a measure of how efficiently the substance is removed, as volume per time. A lower clearance goes with inefficient removal. The term half-life denotes the time in which the quantity being followed falls by half. Lower therefore signals rapid decline. As a reminder, the Ki is the dissociation constant of the complex between target and ligand, obtained from inhibition or displacement. Broadly, the bioavailability is dose-corrected exposure relative to a reference, in per cent. Low values mean poor availability, high ones good availability.

Some results are limits rather than exact numbers.

Data set [1] addresses T1, Cannabinoid receptor 2 (Homo sapiens, UniProt P34972). In words: Agonist activity at human recombinant CB2 receptor expressed in CHO cells assessed as inhibition forskolin-induced cAMP release. The class given is functional, cell-based.
The nature of data set [2]: Intrinsic clearance in human liver microsomes. The class given is ADME, Microsome. For orientation: Microsomes from liver hold many membrane-bound enzymes, among them those of drug oxidation.
Data set [3] is described as follows: Intrinsic clearance in rat liver microsomes. It counts as ADME, Microsome.
For data set [4], the target named is T1, Cannabinoid receptor 2. In words: Agonist activity at human recombinant CB2 receptor expressed in CHO cells assessed as inhibition forskolin-induced cAMP release relative to control. The class given is functional, cell-based.
Data set [5] is described as follows: Ratio of unbound drug level in brain to plasma in rat. The note with it: brain and plasma, read-out: BPR. The class given is ADME, organism-based.
Data set [6] in a line: Volume of distribution in rat at 1 mg/kg, iv. The note with it: in vivo. It counts as ADME, organism-based. Set-up: dose 1 mg/kg, route intravenous.
The nature of data set [7]: Clearance in rat at 1 mg/kg, iv. The class given is ADME, organism-based. The settings on record: in vivo. Also noted: dose 1 mg/kg, route intravenous.
A short description of data set [8]: Half life in rat at 1 mg/kg, iv. The class given is ADME, organism-based. Also noted: dose 1 mg/kg, route intravenous. The note with it: in vivo.
In data set [9] the target is T2, Cannabinoid receptor 1 (Homo sapiens, UniProt P21554). In words: Binding affinity at human CB1 receptor.
For another data set, the species on record is Rattus norvegicus. As to the kind of experiment: Ratio of unbound drug level in brain to plasma in rat relative to control. The class given is ADME, organism-based. The settings on record: in vivo.
Data set [10] is described as follows: Oral bioavailability in rat. The class given is ADME, organism-based. The settings on record: in vivo.
Data set [11] concerns the target T2, Cannabinoid receptor 1. In words: Agonist activity at human CB1 receptor by functional assay.

T1 sequence (P34972 whole entry): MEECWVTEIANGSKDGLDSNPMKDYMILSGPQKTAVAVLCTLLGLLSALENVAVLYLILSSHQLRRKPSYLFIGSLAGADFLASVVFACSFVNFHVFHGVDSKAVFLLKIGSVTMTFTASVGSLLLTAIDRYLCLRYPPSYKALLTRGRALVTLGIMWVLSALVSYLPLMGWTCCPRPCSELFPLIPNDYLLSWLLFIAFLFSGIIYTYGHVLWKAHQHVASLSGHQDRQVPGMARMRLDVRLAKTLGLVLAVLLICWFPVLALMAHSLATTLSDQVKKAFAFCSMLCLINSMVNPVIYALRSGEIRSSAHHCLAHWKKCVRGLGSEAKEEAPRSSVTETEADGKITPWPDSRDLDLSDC
T2 sequence (P21554 whole entry): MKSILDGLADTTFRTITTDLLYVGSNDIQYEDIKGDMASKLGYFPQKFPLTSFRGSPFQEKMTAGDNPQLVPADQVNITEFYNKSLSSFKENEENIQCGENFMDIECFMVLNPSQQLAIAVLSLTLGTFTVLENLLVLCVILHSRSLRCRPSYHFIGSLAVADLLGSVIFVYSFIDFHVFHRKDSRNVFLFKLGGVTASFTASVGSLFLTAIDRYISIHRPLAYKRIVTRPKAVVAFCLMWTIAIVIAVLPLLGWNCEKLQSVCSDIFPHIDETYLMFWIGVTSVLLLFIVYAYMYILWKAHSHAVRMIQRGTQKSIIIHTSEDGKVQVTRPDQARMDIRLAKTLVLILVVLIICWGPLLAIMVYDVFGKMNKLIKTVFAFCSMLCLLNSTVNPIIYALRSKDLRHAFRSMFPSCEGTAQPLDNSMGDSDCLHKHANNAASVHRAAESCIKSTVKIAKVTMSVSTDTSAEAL

For `CC(C)(C)Cc1nc2cc(S(=O)(=O)Cc3ccccc3)ccc2n1CC1CC1`, the EC50 on Cannabinoid receptor 2 [1] stood at 0.0065 µM. Besides, the microsomal CLint in [2] came out at 276 µL/min/mg; in [3] it was 369 µL/min/mg.

With `CCS(=O)(=O)c1ccc2c(c1)nc(CCC(C)C)n2CC1CC1`, at Cannabinoid receptor 2 [1], the EC50 came out at 0.067 µM. Also, on Cannabinoid receptor 2 [4], the Emax is 58%.

In the case of `CCS(=O)(=O)c1ccc2c(c1)nc(C1CCC1)n2CC1CC1`, the EC50 at Cannabinoid receptor 2 [1] came to 0.082 µM. The results for the microsomal CLint in data set [2] and in [3] were 8 µL/min/mg and 33 µL/min/mg, respectively.

On to `CCS(=O)(=O)c1ccc2c(c1)nc(C(C)(C)C)n2C1CC1`, for which, at Cannabinoid receptor 2 [1], the EC50 stood at 0.106 µM. Also, the microsomal CLint in data set [2] came out at 8 µL/min/mg; in data set [3], 8.5 µL/min/mg.

On to `CCS(=O)(=O)c1ccc2c(c1)nc(C(C)C)n2CC1CC1`, for which the half-maximal effective concentration (EC50) at Cannabinoid receptor 2 [1] was 0.132 µM.

On to `CCS(=O)(=O)c1ccc2c(c1)nc(C1CCCC1)n2CC1CC1`, for which the EC50 at Cannabinoid receptor 2 [1] worked out at 0.025 µM. The figures for the microsomal CLint in data set [2] and in data set [3] were 11 µL/min/mg and 106 µL/min/mg, respectively.

With `CCS(=O)(=O)c1ccc2c(c1)nc(C1(C)CCCC1)n2CC1CC1`, at Cannabinoid receptor 2 [1], the EC50 was found to be 0.0096 µM. In addition, the values for the microsomal CLint in data set [2] and in data set [3] were 42 µL/min/mg and 106 µL/min/mg, respectively.

For `CCS(=O)(=O)c1ccc2c(c1)nc(C(C)(C)C)n2C[C@@H]1CCCO1`, the EC50 at Cannabinoid receptor 2 [1] was found to be 0.011 µM. In addition, the microsomal CLint in data set [2] is 12 µL/min/mg; in data set [3] it was 17 µL/min/mg. Also, the Kp uu in data set [5] was found to be 1. In data set [6], this molecule registered a Vd of 1 L/kg. Further, the clearance in data set [7] is 1.63 L/h/kg. For the same molecule, in data set [8], the half-life was 0.4 h.

In the case of `CCS(=O)(=O)c1ccc2c(c1)nc(C(C)(C)C)n2CCOC(F)(F)F`, at Cannabinoid receptor 2 [1], the EC50 was 0.0053 µM. For the same molecule, the figures for the microsomal CLint in data set [2] and in [3] were 7 µL/min/mg and 19 µL/min/mg, respectively.

For `CCS(=O)(=O)c1ccc2c(c1)nc(CC1CC1)n2CC1CC1`, the EC50 at Cannabinoid receptor 2 [1] turned out to be 0.425 µM. Further, the Emax on Cannabinoid receptor 2 [4] turned out to be 79%.

As for `CN(C)CCS(=O)(=O)c1ccc2c(c1)nc(CC(C)(C)C)n2CC1CC1`, on Cannabinoid receptor 2 [1], the EC50 is 0.032 µM. Besides, the microsomal CLint in data set [2] turned out to be 79 µL/min/mg; in [3] it was 170 µL/min/mg.

With `CCS(=O)(=O)c1ccc2c(c1)nc(C1(C)CC1)n2CC1CC1`, the EC50 on Cannabinoid receptor 2 [1] came out at 0.051 µM. Moreover, the figures for the microsomal CLint in [2] and in data set [3] were 8 µL/min/mg and 11 µL/min/mg, respectively.

As for `CCS(=O)(=O)c1ccc2c(c1)nc(C(C)(C)C)n2CC1CC1`, the Ki on Cannabinoid receptor 1 [9] is more than 20 µM. For the same molecule, the EC50 was 0.0027 µM on Cannabinoid receptor 2 [1] and more than 0.01 µM at Cannabinoid receptor 1 [11]. Further, in the data set filed under Rattus norvegicus, the BPR is on record as 30. The same molecule gave a bioavailability in [10] of 100%. Moreover, the microsomal CLint in data set [2] turned out to be 9 µL/min/mg; in data set [3] it was 12 µL/min/mg. In data set [6], this molecule gave a Vd of 3.2 L/kg. Besides, the clearance in data set [7] was 1.2 L/h/kg. The molecule further had a half-life in data set [8] of 1.9 h.

Take `CC(C)(C)Cc1nc2cc(S(=O)(=O)C(C)(C)C)ccc2n1CC1CC1`: the EC50 at Cannabinoid receptor 2 [1] stood at 0.00043 µM. The molecule further came in with a microsomal CLint in data set [2] of 38 µL/min/mg.

Turning to `CCCc1nc2cc(S(=O)(=O)CC)ccc2n1CC1CC1`, the EC50 on Cannabinoid receptor 2 [1] was 0.199 µM. The microsomal CLint is 43 µL/min/mg in data set [2] and 34 µL/min/mg in data set [3].

Consider `CC(C)(C)Cc1nc2cc(S(=O)(=O)CC(C)(C)O)ccc2n1CC1CC1`, for which the EC50 at Cannabinoid receptor 2 [1] was 0.0031 µM. Besides, the microsomal CLint in data set [2] is less than 7 µL/min/mg; in [3], 244 µL/min/mg.

For `CC(C)(C)Cc1nc2cc(S(=O)(=O)C(C)(C)CO)ccc2n1CC1CC1`, the EC50 on Cannabinoid receptor 2 [1] came out at 0.0012 µM. Besides, the microsomal CLint in [2] was less than 7 µL/min/mg; in [3], 54 µL/min/mg.

As to `CN(C)CCn1c(CC(C)(C)C)nc2cc(S(=O)(=O)CC(C)(C)O)ccc21`, the Ki on Cannabinoid receptor 1 [9] is more than 19.4 µM. Also, the EC50 on Cannabinoid receptor 2 [1] is 0.012 µM. Moreover, in the data set filed under Rattus norvegicus, the BPR is reported as less than 1%. The bioavailability in [10] worked out at 21%. Also, the results for the microsomal CLint in data set [2] and in data set [3] were less than 7 µL/min/mg and less than 11.2 µL/min/mg, respectively.

On to `CCS(=O)(=O)c1ccc2c(c1)nc(C(C)(C)C)n2CCN(C)C`, for which, at Cannabinoid receptor 2 [1], the EC50 was 0.039 µM. The microsomal CLint in data set [2] was 8 µL/min/mg; in data set [3] it was 8.5 µL/min/mg.

For `CC(C)S(=O)(=O)c1ccc2c(c1)nc(CC(C)(C)C)n2CC1CC1`, the Ki at Cannabinoid receptor 1 [9] was more than 10 µM. For the same molecule, the concentration giving a half-maximal response (EC50) at Cannabinoid receptor 2 [1] was 0.0032 µM. The microsomal CLint in data set [2] was determined as 23 µL/min/mg; in data set [3], 144 µL/min/mg.

As for `CCS(=O)(=O)c1ccc2c(c1)nc(CC(C)(C)C)n2CC1CC1`, the EC50 on Cannabinoid receptor 2 [1] is 0.0029 µM. Besides, the microsomal CLint was 8.4 µL/min/mg in [2] and 38 µL/min/mg in [3].
